Data reported in ChEMBL document CHEMBL1287699, “N,N-Bis-(8-hydroxyquinoline-5-yl methyl)-benzyl substituted amines (HQNBA): peroxisome proliferator-activated receptor (PPAR-γ) agonists with neuroprotective properties” (Bioorg Med Chem Lett, 2010).
Activity calls are given as the source filed them. The calls are words filed in the database; no cut-off is given here.

Experiments:
HT-22 [1] = assay: Neuroprotective activity in mouse HT22 cells assessed as protection against glutamate-induced toxicity after 24 hrs by MTT assay; format: functional, cell-based; conditions: HT-22, 24 h
HT-22 [2] = assay: Neuroprotective activity in mouse HT22 cells assessed as protection against glutamate-induced toxicity at 0.5 to 1 uM after 24 hrs by MTT assay relative to control; format: functional
HT-22 [3] = assay: Neuroprotective activity in mouse HT22 cells assessed as protection against glutamate-induced toxicity at 1 uM after 24 hrs by MTT assay in presence of GW-9662; format: functional, cell-based
[4] = Cytotoxicity against mouse hippocampal HT22 cells at 1 uM after 24 hrs by MTT assay; format: cell-based, Hippocampus; conditions: ht-22, 24 h
HT-22 [5] = assay: Inhibition of glutamate-induced decrease in GSH level in mouse HT22 cells at 1 uM after 24 hrs; format: functional, cell-based

Compound	EC50 (HT-22 [1])	%max (HT-22 [2])	Activity (HT-22 [3])	Activity [4]	Activity (HT-22 [5])
Cc1ccc(CN(Cc2ccc(O)c3ncccc23)Cc2ccc(O)c3ncccc23)cc1	125 nM	100%	inactive	39.4%	Active
Oc1ccc(CN(Cc2cccs2)Cc2ccc(O)c3ncccc23)c2cccnc12	383 nM	97%	inactive	34%	Active
O=C(Nc1ccccc1)c1cc([N+](=O)[O-])ccc1Cl	–	–	inactive	–	–
Oc1ccc(CN(Cc2cccc(C(F)(F)F)c2)Cc2ccc(O)c3ncccc23)c2cccnc12	168 nM	99%	inactive	40.7%	Active
Cc1c(C)c2c(c(C)c1O)CCC(C)(COc1ccc(CC3SC(=O)NC3=O)cc1)O2 (stereo not drawn)	–	–	–	–	inactive
Oc1ccc(CN(Cc2ccc(C(F)(F)F)cc2)Cc2ccc(O)c3ncccc23)c2cccnc12	621 nM	100%	inactive	33.7%	Active
COc1cc(/C=C/c2cc(/C=C/c3ccc(O)c(OC)c3)n(-c3ccccc3)n2)ccc1O	–	–	Active	–	–
